Patent US20120122966A1, “USE OF ORGANIC DYES AS ANALGESIC AGENTS” (priority 2009, published 2012)

Tests used:
Format in all cases: in vivo, human
[1] = tested on: bladder cancer, metastases in pelvic bones, pain; assay: Example 3: patient L., bladder cancer with pelvic bone metastases, treated with malachite green oxalate
Method: Patient one. Diagnosis: bladder cancer. Metastases in pelvic bones. Three years ago bladderectomy was performed for cancer. Complaints of pain, bloody urine, frequent urination and pelvic bone pains. In CT, a 2×2×2 cm tumor-like mass in the projection of the mouth of the right ureter and a 1.5×1.1×0.9 cm in the projection of the mouth of the left ureter. In the wing of the left illium two tumor-like masses with irregular contours, 1.5 to 2.5 cm in diameter. Medium severity condition, skin integument pallor, blood in urine. […] Began treatment with the preparation—20 drops of a 1% solution of malachite green oxalate in half a glass of water by mouth and in the form of microclysters. […] The course had lasted for 4 months. […] Biphosphonates were prescribed for replacement therapy.

[2] = tested on: metastasizing melanoma of the right forearm, metastases to the liver, pain; assay: Example 4: patient D., metastasizing melanoma, treated with malachite green oxalate
Method: Patient three. Diagnosis: metastasizing melanoma of the right forearm. Metastases to the liver and right eye. Three years ago melanoma resection was performed. A year and a half later gripes appeared in the right eye. Eye enucleation for metastasis was performed. In the examination of the internal organs, a 4×5×4 cm metastasis in the liver was detected. At the same time, relapse in the surgery area appeared. Complaints of severe pain in the liver and pain in the relapse area. Objectively: medium severity condition, skin integument pallor, a purple tumor-like mass on the right forearm with a 4×5×5 cm pronounced edema. […] Began treatment with the preparation according to the following regimen: 5 ml of a 0.000001% sterile solution of malachite green oxalate was injected under the tumor base. Later, a 2% ointment with the same preparation was applied to the skin surface. Two times a day, 500 mg of malachite green oxalate diluted in 500 ml of saline was administered intravenously. Also, 5 g of malachite green oxalate was diluted in water and administered by mouth, as well as in the form of microclysters. […] The course had continued for 3 months.

migraine = assay: Example 8: patient O., migraine; settings: third day; 2 g in 100 ml of water on an empty stomach two times a day
Method: Patient five.
Complaints of periodic excruciating pain in the right temporal area. Diagnosis: migraine. Prescribed treatment: malachite green oxalate preparation, 2 g dissolved in 100 ml of water on an empty stomach two times a day.

[3] = tested on: poorly differentiated pulmonary adenocarcinoma, MTS to the brain and skeleton bones, pain syndrome; assay: Example 1: patient V., pulmonary adenocarcinoma with MTS, pain syndrome, treated with gentian violet
Method: Patient six. Diagnosis: poorly differentiated pulmonary adenocarcinoma. MTS [expansion not given; possibly metastases] to the brain and skeleton bones. Cachexia. Pain syndrome. Relatives state that over the last two months the patient has been receiving 5.0 ml of heroin intravenously three times a day. Otherwise, they note resumption of pronounced excruciating pain. In CT, several tumor-like masses in the mediastinum and left lung, average size 3.9×3.6×3.2 cm. Grave condition, dyspnea, cyanosis, adynamia, and sensations of pain, getting stronger when coughing. Treatment was prescribed that included the use of medicinal preparations with antineoplastic action—an organic dye, a 1% gentian violet solution. The first course of treatment using the preparation—15 drops of a 1% solution in a glass of water three times a day by mouth, additionally a microclyster—10 drops of a 1% solution in 30 ml of water at lunch, and q.h.s. a 1% suppository with the preparation. […] On the third week of treatment with the preparation the patient's condition improved. […] The lung tumor size dropped to 2.1×2.2×2.2 cm. After six months of treatment the tumor size dropped to 0.3×0.4×1.0 cm. […] Blood tests against the background of treatment have normalized.

[4] = tested on: pancreas head blastoma, pain; assay: Example 5: patient Z., pancreas head blastoma with neck lymph node metastases, pain, treated with gentian violet
Excerpt: Patient two. […] Started chemotherapy. After three weeks the condition began rapidly deteriorating, accompanied by extreme weight loss—from 95 kg to 72 kg. Pain became considerably more severe. Stomach pain occurs before having a meal, i.e. after having a meal the pain is lower. At the same time stool was lightly yellow—very light color. The patient had been taking an analgesic—ketanol—infrequently, but lately has been taking it two times a day. […] Immediately after the end of the first course of phthorafurum the patient began taking gentian violet preparation, 3 mg per 50 kg of weight two times a day.

osteoarthrosis pain = assay: Example 7: patient T., osteoarthrosis with joint deformation, permanent pain
Method: Patient four. Complaints of not being able to raise their right arm above the shoulder level. In CT, effects of osteoarthrosis with joint deformation were noticed. Taking analgesic preparations turned out to be ineffective. Pain became permanent. Gentian violet preparation was prescribed, 0.0004 mg/kg of weight once a day.

[5] = tested on: renal cell carcinoma, lung and bone metastases, excruciating bone pain; assay: Example 2: patient T., renal cell carcinoma with lung and bone metastases, bone pain, treated with crystal violet
Method: Patient four. Three years ago, the left kidney was removed, and preventive chemotherapy was administered for renal cell carcinoma. In a CT examination, a 2.5×2.4×2.3 cm tumor-like mass in the right kidney projection, three round tumor-like masses from 2.6 to 2.3 cm in diameter in the left lung, and numerous bone metastases. Grave condition, dyspnea, cyanosis, […]. Complaints of excruciating bone pain. […] Treatment prescribed, including the use of an antitumor medicinal preparation. The preparation, crystal violet, was administered by mouth as a potion-16 drops of a 1% solution three times a day, and as microclysters. After 7 days of treatment, dyspnea abated, and the pain syndrome disappeared. Blood tests against the background of treatment have normalized over 3 weeks. Then, the course was repeated using crystal violet preparation which was administered into rectum in the form of 1% suppositories and by inhaling, for 12 months with half-month long breaks. During the therapy the right kidney tumor and lung metastases disappeared. No pain. Weight restored.

**Q.** With malachite green oxalate as the compound, how does the “bladder tumor and pelvic metastases” value ([1]; complete course of 6 months) read?
**A.** disappeared

**Q.** And the return of pain ([1]; complete course of 6 months)?
**A.** did not return

**Q.** What about the weight ([1]; complete course of 6 months) of the same compound?
**A.** restored

**Q.** What about the blood tests ([1]; fourth week) of the same compound?
**A.** normalized

**Q.** What about the “decrease of pelvic bone metastases” value ([1]; over the 4-month course) of the same compound?
**A.** 1.5 cm

**Q.** And the “use of narcotic analgesics by the patient” value ([1]; previously 5.0 ml of morphine three times a day)?
**A.** declined taking narcotic analgesics

**Q.** And the “pain in the area of metastases” value ([1]; sixth day, 20 drops of 1% solution by mouth and microclysters)?
**A.** got duller

**Q.** What about the “pain in the area of metastases” value ([1]; tenth day) of the same compound?
**A.** disappeared completely

**Q.** And the blood tests ([2]; 4th week)?
**A.** normalized

**Q.** And the return of pain ([2]; complete course of 6 months)?
**A.** did not return

**Q.** And the weight ([2]; complete course of 6 months)?
**A.** restored

**Q.** And the “decrease of liver metastasis” value ([2]; during the 3-month course, baseline 4×5×4 cm)?
**A.** 1.5 cm

**Q.** And the “use of narcotics by the patient” value ([2]; fifth day after the start of treatment)?
**A.** declined taking narcotics

**Q.** What about the “pain in the area of metastases” value ([2]; sixth day, injection under tumor, 2% ointment, intravenous, by mouth, microclysters) of the same compound?
**A.** became duller

**Q.** And the “use of narcotic analgesics by the patient” value ([2]; stated after the tenth day, previously 3.0 ml of morphine four times a day)?
**A.** declined taking narcotic analgesics

**Q.** And the “pain in the area of metastases” value ([2]; tenth day)?
**A.** disappeared completely

**Q.** And the pain (migraine)?
**A.** abated and has not recurred

**Q.** What does the source list for `CN(C)c1ccc(C(=C2C=CC(=[N+](C)C)C=C2)c2ccc(N(C)C)cc2)cc1` [gentian violet]?
**A.** brain metastases ([3]; after six months of treatment): No brain metastases are observed; dyspnea ([3]; after six months of treatment): abated; pain syndrome ([3]; after six months of treatment): practically absent; blood tests ([3]; against the background of treatment): normalized; pain syndrome after the sessions ([3]; first week, for several hours after sessions, 1% solution by mouth, microclyster, suppository): substantial improvement of the pain syndrome; patient's condition ([3]; third week of treatment): improved; MTS in the brain in CT ([3]; three months after start of treatment): no MTS in the brain were observed; pain ([4]; after 3 days, 3 mg per 50 kg of weight two times a day): abated significantly; return of pain ([4]; hereinafter): has not returned; pain ([4]; later than 3 days (then)): stopped completely; pain (osteoarthrosis pain; after a week): disappeared completely; pain (osteoarthrosis pain; after three days, 0.0004 mg/kg of weight once a day): abated

**Q.** Which pain syndrome ([5]; after 7 days of treatment) does the source give for `CN(C)c1ccc(C(=C2C=CC(=[N+](C)C)C=C2)c2ccc(N(C)C)cc2)cc1` [crystal violet] here?
**A.** disappeared

**Q.** What about the dyspnea ([5]; after 7 days, 16 drops of 1% solution by mouth three times a day and microclysters) of the same compound?
**A.** abated

**Q.** What about the pain ([5]; after the 12-month course) of the same compound?
**A.** No pain

**Q.** And the weight ([5]; after the 12-month course)?
**A.** restored

**Q.** And the “right kidney tumor and lung metastases” value ([5]; during therapy, 1% suppositories and inhaling for 12 months with breaks)?
**A.** disappeared

**Q.** What about the blood tests ([5]; over 3 weeks) of the same compound?
**A.** normalized
